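Assay format: 96-well plates, 48-hour exposure. The concentration for 50% growth inhibition is given as GI50.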 The source made the active and inactive calls. No stated cut-off is given here; in the data, active = GI50 up to about 1.1 µM and inactive = higher.

The text below walks through data of ChEMBL document CHEMBL1201862, “PubChem BioAssay data set” (2004).

Some test systems named below: M14; UO-31; NCI/ADR-RES; MDA-MB-435; HOP-62; SK-MEL-5; DU-145; BT-549; ACHN; A549; U-251; NCI-H23; CCRF-CEM; HCC 2998; NCI-H522; EKVX; NCI-H460; SK-MEL-2; PC-3; NCI-H226.
Holding throughout (assay): DTP human tumour cell line panel, 48 h

Broadly, the GI50 is the concentration that inhibits growth by half. Turning to `Oc1ccccc1/C=N/c1ccc(Oc2ccc(Cl)cc2)c(Cl)c1`, the GI50 in the experiment with M14 was 18.5 µM (inactive); in the experiment with UO-31, 11.1 µM (inactive); in the experiment with NCI/ADR-RES, 19.3 µM (inactive); with MDA-MB-435, 28.3 µM (inactive); in the experiment on HOP-62 it was 15.5 µM (inactive); in the experiment on SK-MEL-5, 20.8 µM (inactive). The GI50 is 81.8 µM (inactive) with DU-145; 15.8 µM (inactive) with BT-549; 30.3 µM (inactive) in the experiment with ACHN; 20.6 µM (inactive) with A549; 21.2 µM (inactive) in the experiment on U-251; 18.6 µM (inactive) with NCI-H23. The GI50 was 12.4 µM (inactive) with CCRF-CEM; 18.5 µM (inactive) with HCC 2998; 14.4 µM (inactive) in the experiment with NCI-H522; 21.3 µM (inactive) in the experiment on EKVX; 18.6 µM (inactive) in the experiment on NCI-H460; 13.6 µM (inactive) in the experiment on SK-MEL-2. Further, the GI50 in the experiment on PC-3 was 20.9 µM (inactive); with NCI-H226 it was 25.2 µM (inactive).
With `NCC[Se][Se]CCN`, the GI50 is 3.83 µM (inactive) in the experiment on M14; 4.42 µM (inactive) in the experiment on UO-31; 9.31 µM (inactive) with NCI/ADR-RES; 12.3 µM (inactive) with MDA-MB-435; 8.67 µM (inactive) with HOP-62; 5.66 µM (inactive) with SK-MEL-5. Besides, the GI50 was 11.6 µM (inactive) in the experiment with DU-145; 14.4 µM (inactive) with BT-549; 10 µM (inactive) in the experiment with ACHN; 6.03 µM (inactive) in the experiment on A549; 7.41 µM (inactive) in the experiment on U-251; 15 µM (inactive) in the experiment on NCI-H23. Moreover, the GI50 is 5.12 µM (inactive) in the experiment on CCRF-CEM; 11.9 µM (inactive) with HCC 2998; 10.4 µM (inactive) in the experiment on NCI-H522; 5.38 µM (inactive) in the experiment on EKVX; 6.4 µM (inactive) in the experiment on NCI-H460; 7.57 µM (inactive) in the experiment on SK-MEL-2. Further, the results for the GI50 with PC-3 and with NCI-H226 were 10.9 µM (inactive) and 11 µM (inactive), respectively.
As to `C[C@H]1COC2=C1C(=O)C(=O)c1c2ccc2c1CCCC2(C)C` [CRYPTOTANSHINONE], the 50% growth inhibitory concentration (GI50) in the experiment on M14 is 1.03 µM (active); in the experiment on UO-31, 4.7 µM (inactive); in the experiment with NCI/ADR-RES, 2.79 µM (inactive); with MDA-MB-435, 1.42 µM (inactive); in the experiment on HOP-62, 3.68 µM (inactive); in the experiment on SK-MEL-5, 0.382 µM (active). Besides, the GI50 in the experiment with DU-145 was 1.35 µM (inactive); with BT-549 it was 2.11 µM (inactive); in the experiment on ACHN, 3.6 µM (inactive); in the experiment on A549 it was 1.05 µM (active); in the experiment with U-251, 2 µM (inactive); in the experiment on NCI-H23, 1.55 µM (inactive). The GI50 is 4.31 µM (inactive) in the experiment on CCRF-CEM; 2.48 µM (inactive) with HCC 2998; 2.01 µM (inactive) in the experiment with NCI-H522; 4.62 µM (inactive) with EKVX; 1.63 µM (inactive) with NCI-H460; 4.25 µM (inactive) with SK-MEL-2. For the same molecule, the GI50 with PC-3 is 4.93 µM (inactive); with NCI-H226, 3.24 µM (inactive).
